What was measured:
Assay type in all cases: cell-based
[1] = system: S. mutans (ATCC 25175); assay: Determination of the minimum inhibitory concentration (MIC); conditions: Streptococcus mutans, ATCC25175; for MIC: against S. Mutans
Description: A colony of bacterium taken from agar plate is inoculated in Brain Hearth Infusion medium (BHI) and grown overnight at 37° C. The next day, the bacteria are diluted in fresh medium containing the phenol red indicator, up to a density of 10^6 bacteria/mL.
A stock solution of 2 mg/mL of compound is prepared in BHI medium containing phenol red.
In a 96-well plate, the compound stock solution is diluted serially (the concentration is halved at each step) to obtain the following final concentrations after addition of the bacteria suspension: 1 mg/mL; 0.5 mg/mL; 0.25 mg/mL; 0.125 mg/mL; 0.065 mg/mL; 0.032 mg/mL; 0.016 mg/mL; 0.008 mg/mL; 0.004 mg/mL; 0.002 mg/mL; 0.001 mg/mL. A compound-free medium is used as a growth control. A volume of bacterial suspension equal to 0.5*10^6 bacteria/mL is added to each well containing the compound and the control. The dish is incubated at 37° C. for 24 hours. Bacterial growth in each well is detected by the phenol red, which turns from red to yellow following acidification of the medium induced by bacterial metabolism. The lowest concentration of the compound causing no evident color change corresponds to the MIC.
In order to test the antibacterial properties of the compounds prepared in Examples 1-8, on colonies of S. mutans (ATCC 25175), a bacterium commonly found in the human oral cavity, a test was set up to determine the minimum inhibitory concentration (MIC) and the minimum bactericidal concentration (MBC) according to the “Determination of minimum inhibitory concentration (MIC)” methods and “Determination of minimum bactericidal concentration (MBC)” described above.

[2] = system: E. coli (ATCC25922); assay: Determination of the minimum bactericidal concentration (MBC)
Description: (§1) A 20 mg/mL compound stock solution in BHI medium is prepared. In a 96-well plate, the compound solution is diluted serially (the concentration is halved at each step) to obtain the following final concentrations after addition of the bacteria suspension: 10 mg/mL; 5 mg/mL; 2.5 mg/mL; 1.25 mg/mL; 0.625 mg/mL; 0.31 mg/mL; 0.15 mg/mL; 0.08 mg/mL; 0.04 mg/mL; 0.02 mg/mL. Wells containing a mixture of penicillin and streptomycin antibiotics are used as a positive control. Compound-free medium is used as a growth control. A volume of bacterial suspension equal to 0.5*10^6 bacteria/mL is added to each well containing the compound and the controls. The dish is incubated at 37° C. for 24 hours. The lowest compound concentration at which no turbidity of the culture medium is evident is defined as MIC. For the calculation of MBC, aliquots equal to 50 μL are taken from the wells showing evident no turbidity of the medium and are plated on BHI agar plates for 48 hours. […] Bacterial suspensions taken from the positive control (growth medium only) and the negative control (growth medium with Ampicilin 100 μg/mL) are also seeded.
(§2) The compounds according to Examples 1, 3, 5, 6, and 7 were tested on bacterial strains different from S. mutans with the same methods described above, obtaining the MIC and MBC values reported in Table 2.

[3] = system: S. Aureus (ATCC 25923); assay: as above
Description: as §1, §2

[4] = system: S. Mitis (ATCC 49456); assay: as above
Description: as §1, §2

[5] = system: S. Sanguis (ATCC 10556); assay: as above
Description: as §1, §2

[6] = system: S. mutans bacterial suspension (ATCC 25175); assay: Direct contact test (DCT) in bonding resin R2
Description: The DCT test is based on the turbidimetric determination of bacterial growth in 96-well microplates.
On the wall of each well, 15 μL of the resin to be tested are polymerized for 40 s, using a VALO® Grand LED curing light (Ultradent, Milan, Italy) in standard mode (1000 mW/cm^2, 2 maximum of emission in the ranges of wavelengths 395-415 nm and 440-480 nm);
In this way the side walls of the wells are coated with the polymerized material under test. The wells are then washed with phosphate buffered saline (PBS) before inoculating them with bacteria. Keeping the plate in vertical position, 10 μL of S. mutans bacterial suspension (ATCC 25175) in brain heart infusion medium (BHI) from an o/n culture, is then deposited on the layer of material present on the side walls of the wells. The plate is held upright for 1 hour to allow direct contact between bacteria and the cured material. 200 μL culture broth is then added to each of the wells with gentle mixing. The microplate is then placed in the chamber of a spectrophotometer for ELISA plates reading at 37° C. and the optical density in each well is measured at 600 nm at regular intervals (every 30 minutes for 18 hours). The whole experiment is conducted under aseptic conditions and is repeated on three microplates to ensure reproducibility of the result. 24 wells for each microplate were tested for each sample.
The bactericidal properties of the compounds according to Examples 1, 5, 6 and 7 within a reference bonding resin called R2 were tested using the “Direct contact test (DCT)” method described above. As a negative reference, the reference bonding resin was used without adding compounds according to the invention.
The reference resin called R2 has the following composition (% by weight): • 70% Bis-GMA (bisphenol A glycidyl dimethacrylate, CAS 1565-94-2, Sigma-Aldrich); • 28.75% TEGDMA (triethylene glycol dimethacrylate, CAS 109-16-0, Sigma-Aldrich); • 0.25% CQ (Camphorquinone, CAS 10373-78-1, Sigma-Aldrich); • 1% EDMAD (ethyl-4-dimethylamino benzoate, CAS 10287-53-3, Sigma-Aldrich) and was diluted with 20% by weight of EtOH for use.
For the tests execution, different quantities of the compounds according to examples 1, 5, 6 and 7 were added to the resin R2 in a quantity range from 0.1 to 10% by weight. The homogeneity of the material to be tested was ensured before application in the wells by carrying out a sonication (50%, 5 min) and mixing with Vortex (800 rpm, 5 min) of the various resins added with the compound according to the invention.

| Compound | MIC [1] [µg/mL] | MCB [2] [mg/mL] | MCB [3] [mg/mL] | MCB [4] [mg/mL] | MCB [5] [mg/mL] | inhibition of bacterial survival by contact (optical density) ([6]; 1% by weight in resin R2) | MBC ([1]; against the analyzed bacteria strains) [µg/mL] | inhibition of bacterial survival by contact (optical density) ([6]; 0.5% by weight in resin R2) |
| --- | --- | --- | --- | --- | --- | --- | --- | --- |
| C=C(C)C(=O)OCC[N+](C)(C)CCCCCCCCCCCC[N+](C)(C)CCOC(=O)C(=C)C.[Br-].[Br-] [Example 1] | 150 | 0.625 | 0.156 | 0.62 | 0.62 | able to inhibit bacterial survival by contact | – | – |
| C=C(C)C(=O)NCc1cc[n+](CCCCCCCCCCCC[n+]2ccc(CNC(=O)C(=C)C)cc2)cc1.[Br-].[Br-] [Example 7] | 2.5 | 0.0025 | 0.005 | 0.02 | 0.02 | able to inhibit bacterial survival by contact | – | – |
| C=C(C)C(=O)OCC[N+](CC)(CC)CCCCCCCCCCCC[N+](CC)(CC)CCOC(=O)C(=C)C.[Br-].[Br-] [Example 5] | 10 to 20 | 0.156 | 0.039 | 0.039 | 0.039 | able to inhibit bacterial survival by contact | – | – |
| C=C(C)C(=O)Nc1ccc([N+](C)(C)CCCCCCCCCCCC[N+](C)(C)c2ccc(NC(=O)C(C)=O)cc2)cc1.[Br-].[Br-] [Example 6] | 5 | 0.002 | 0.01 | 0.01 | 0.005 | – | 5 to 10 | able to inhibit bacterial survival by contact |

Source: patent US20220402872A1, “PHOTOPOLYMERIZABLE ANTIBACTERIAL MONOMER” (UNIVERSITA' DEGLI STUDI DI TRIESTE, priority 2019, published 2022)
